Reference: ChEMBL document CHEMBL1782003, “Development and SAR of functionally selective allosteric modulators of GABAA receptors” (Bioorg Med Chem, 2011)
Converted amounts (≈) assume the structure as drawn.

Assay: physchem
Settings: DMSO

Point of comparison: `COc1ccc(OC)c(-c2cccc3c(N)c(C(=O)NC4CC4)nnc23)c1`, solubility 8.9 µM (≈ 3.24 µg/mL). Against it:
- COc1ccc(OC)c(-c2cccc3c(N)c4c(nc23)CN(C2CC2)C4=O)c1 — 1.8-fold lower, 4.9 µM (≈ 1.84 µg/mL)
- CCCNC(=O)c1nnc2c(-c3cc(OC)ccc3OC)cccc2c1N [AZD6280] — 2.3-fold lower, 3.9 µM (≈ 1.43 µg/mL)
- CCCNC(=O)c1nnc2c(-c3cnc(OC)nc3OC)cccc2c1N — 4.7-fold lower, 1.9 µM (≈ 0.7 µg/mL)
- COc1ccc(OC)c(-c2cccc3c(N)c(C(=O)NCCCO)nnc23)c1 — within 1.5-fold, 11 µM (≈ 4.21 µg/mL)
- COc1ccc(OC)c(-c2c(F)ccc3c(N)c(C(=O)NC4CC4)nnc23)c1 — within 1.5-fold, 8.8 µM (≈ 3.37 µg/mL)
- COc1ccc(-c2c(F)ccc3c(N)c(C(=O)NC4CC4)nnc23)c(OC)n1 — 4.5-fold lower, 2 µM (≈ 0.767 µg/mL)
- CCCNC(=O)c1nnc2c(-c3cc(C)ccc3C)cccc2c1N — 6.4-fold lower, 1.4 µM (≈ 0.468 µg/mL)
- CCCNC(=O)c1nnc2c(-c3cc(C)ccc3OC)cccc2c1N — within 1.5-fold, 8.3 µM (≈ 2.91 µg/mL)
- CCCNC(=O)c1nnc2c(-c3cccc(C)c3)cccc2c1N — within 1.5-fold, 8 µM (≈ 2.56 µg/mL)
- COc1cc(-c2c(F)ccc3c(N)c(C(=O)NC4CC4)nnc23)c(OC)nn1 — within 1.5-fold, 6.2 µM (≈ 2.38 µg/mL)
- CCCN1Cc2nc3c(CC(C)(C)C)cccc3c(N)c2C1=O — 2.6-fold lower, 3.4 µM (≈ 1.06 µg/mL)
- CCC(C)(C)N1Cc2nc3c(-c4cc(OC)ccc4OC)cccc3c(N)c2C1=O — 4.5-fold lower, 2 µM (≈ 0.811 µg/mL)
- CCNC(=O)c1nnc2c(-c3cc(OC)ccc3OC)c(F)ccc2c1N — 1.8-fold lower, 5 µM (≈ 1.85 µg/mL)
- COc1ccc(OC)c(-c2c(F)ccc3c(N)c(C(=O)NC(C)C)nnc23)c1 — within 1.5-fold, 7.8 µM (≈ 3 µg/mL)
- CCCNC(=O)c1nnc2c(-c3c(F)cccc3OC)cccc2c1N [AZD7325] — within 1.5-fold, 7.6 µM (≈ 2.69 µg/mL)
- CCC(C)NC(=O)c1nnc2c(-c3cc(OC)ccc3OC)cccc2c1N (stereo not given) — 7.4-fold lower, 1.2 µM (≈ 0.457 µg/mL)
- CCCNC(=O)c1nnc2c(-c3cc(OC)ccc3OC)c(F)ccc2c1N — 2.7-fold lower, 3.3 µM (≈ 1.27 µg/mL)
- COc1ccc(OC)c(-c2cccc3c(N)c(C(=O)NC4CCC4)nnc23)c1 — 2.1-fold lower, 4.3 µM (≈ 1.63 µg/mL)
- COc1ccc(OC)c(-c2cccc3c(N)c4c(nc23)CN(C2CCCC2)C4=O)c1 — 3.1-fold lower, 2.9 µM (≈ 1.17 µg/mL)
- COc1ncc(C)cc1-c1cccc2c(N)c(C(=O)NC3CC3)nnc12 — within 1.5-fold, 10.8 µM (≈ 3.77 µg/mL)
- CNC(=O)c1nnc2c(-c3cc(OC)ccc3OC)cccc2c1N — 3.4-fold lower, 2.6 µM (≈ 0.88 µg/mL)
- COc1ccc(OC)c(-c2c(F)ccc3c(N)c4c(nc23)CN(C2CC2)C4=O)c1 — 8.9-fold lower, 1 µM (≈ 0.393 µg/mL)
- COc1ccc(OC)c(-c2cccc3c(N)c4c(nc23)CN(C)C4=O)c1 — 11-fold lower, 0.8 µM (≈ 0.28 µg/mL)
- CCCNC(=O)c1nnc2c(-c3ccc(C)cc3C)cccc2c1N — 11-fold lower, 0.8 µM (≈ 0.268 µg/mL)
- COc1ccc(OC)c(-c2c(F)ccc3c(N)c4c(nc23)CN(C2CCC2)C4=O)c1 — 8.9-fold lower, 1 µM (≈ 0.407 µg/mL)
- COc1ccc(OC)c(-c2cccc3c(N)c4c(nc23)CN(C2CC(C)C2)C4=O)c1 (stereo not given) — 9.9-fold lower, 0.9 µM (≈ 0.363 µg/mL)
- COc1ccc(OC)c(-c2cccc3c(N)c(C(=O)NC(C)C)nnc23)c1 — 1.9-fold lower, 4.7 µM (≈ 1.72 µg/mL)
- CCCNC(=O)c1nnc2c(-c3cc(C)cc(C)c3)cccc2c1N — 11-fold lower, 0.8 µM (≈ 0.268 µg/mL)
- CCCNC(=O)c1nnc2c(-c3ccccc3C)cccc2c1N — 3-fold higher, 26.8 µM (≈ 8.59 µg/mL)
- CCN1Cc2nc3c(-c4cc(OC)ccc4OC)cccc3c(N)c2C1=O — 18-fold lower, 0.5 µM (≈ 0.182 µg/mL)
- COc1ccc(OC)c(-c2cccc3c(N)c4c(nc23)CN(C2CCC2)C4=O)c1 — 3.9-fold lower, 2.3 µM (≈ 0.896 µg/mL)
- CCN1Cc2nc3c(-c4cc(OC)ccc4OC)c(F)ccc3c(N)c2C1=O — 30-fold lower, 0.3 µM (≈ 0.114 µg/mL)
- COc1ccc(OC)c(-c2c(F)ccc3c(N)c(C(=O)NC4CCC4)nnc23)c1 — 3.2-fold lower, 2.8 µM (≈ 1.11 µg/mL)
- CCNC(=O)c1nnc2c(-c3cc(OC)ccc3OC)cccc2c1N — within 1.5-fold, 8.2 µM (≈ 2.89 µg/mL)
- CCCNC(=O)c1nnc2c(-c3ccccc3)cccc2c1N — within 1.5-fold, 9.5 µM (≈ 2.91 µg/mL)
- COc1ccc(OC)c(-c2cccc3c(N)c(C(=O)NCCC(F)(F)F)nnc23)c1 — 3.2-fold lower, 2.8 µM (≈ 1.18 µg/mL)
- COc1ccc(OC)c(-c2cccc3c(N)c(C(=O)NC4CC(C)C4)nnc23)c1 (stereo not given) — 4.9-fold lower, 1.8 µM (≈ 0.706 µg/mL)
- CCCNC(=O)c1nnc2c(-c3cnccc3OC)cccc2c1N — 3.2-fold higher, 28.1 µM (≈ 9.48 µg/mL)
- CCCNC(=O)c1nnc2c(CC(C)C)cccc2c1N — 1.9-fold lower, 4.6 µM (≈ 1.32 µg/mL)
